Read-outs that look alike come from different tables or passages of the source. Marks after values point to notes of the source that are not given here.

The test system of one experiment is tumour cell lines. The arrangement: method as in earlier work. As to conditions: range over cell lines; ref Gravett et al., 2011; Hooft van Huijsduijnen et al., 2013; Dwivedi et al., 2015; Wu et al., 2018; Wong et al., 2020; read-out: IC50 against tumour cell lines; cited from earlier work.
Experiment [1] has as its system HepG2 liver hepatocellular carcinoma. Briefly: Cytotoxicity drug combination (isobole) assay HepG2. In kind it is cell-based, human. How it is done:
(§1) For the drug combination inhibitory assays, six drug preparations, of which four comprised combinations of either artemiside or artemisone with celastrol in a fixed ratio of 80:20, 60:40, 40:60, and 20:80 were prepared and screened against HepG2 liver hepatocellular carcinoma and LO2 human normal hepatocytes respectively. Two of these six preparations employed each of artemiside, artemisone or celastrol alone at a concentration approximately 5–7 times higher than the IC50 of the individual drug as presented in Table 4. […] Thus, six combinations for artemiside (µM) and celastrol (µM) prepared were 500:0, 400:4, 300:8, 200:12, 100:16, and 0:20, respectively.
(§2) As above for the malaria combination assays, a mean ΣFIC<1.0 represents a synergistic interaction, >1.3 represents an antagonistic interaction and ΣFIC = 1 represents an indifferent or additive interaction. Additivity, synergism and antagonism were also be established from the linear plots constructed from the FIC values of each of the drugs. A concave hyperbolic plot indicates synergism, a convex hyperbolic plot indicates an antagonistic interaction, and a straight line indicates an additive interaction. Isobole analysis of the combinations of each of artemiside and artemisone in combination with celastrol was performed against HepG2 and LO2 cells respectively. In Figure 5 is presented the isoboles for each drug combination.
(§3) Next, combinations of each of artemiside and artemisone with celastrol were examined, according to the method used to establish additivity/synergism described above. […] Against the normal hepatocyte LO2 cell line, whilst the interaction of artemisone with celastrol was synergistic, that of artemiside was additive. Synergism and additivity were also evident from the linear plots determined from the FIC values of each of the drugs (Table 5 and Figure 6). Thus, synergism is confirmed for combinations of the amino-artemisinins with celastrol against the HepG2 carcinoma cell line, and for artemisone-celastrol against human normal hepatocyte LO2.

The next experiment deals with A375 melanoma cells. The arrangement: method as in Wong et al., 2020. As to conditions: ref Wong et al., 2020; cited from earlier work.
For experiment [2], the system named is BEAS-2B non-tumorigenic human bronchial epithelium. Briefly: MTT cytotoxicity assay BEAS-2B. As to conditions: 72 h, read-out: IC50 BEAS-2B. In kind it is cell-based. How it is done:
(§4) Proliferative and non-proliferative mammalian cell lines: human liver and lung cancer cell lines HepG2 and A549, and immortalized normal liver LO2 and lung BEAS-2B cells were purchased from ATCC (Manassas, VA, United States). Cells were cultured in RPMI-1640 medium supplemented with 10% fetal bovine serum and antibiotics penicillin (50 U/mL) and streptomycin (50 μg/ml; Invitrogen, United Kingdom). All cells were incubated at 37°C in a 5% humidified CO2 incubator.
(§5) All test compounds were dissolved in DMSO at a final concentration of 50 mM and stored at −20°C before use. Cytotoxicity was assessed with A549, HepG2, BEAS-2B and LO2 cells. The MTT assay with 3-(4,5-dimethylthiazole-2yl)-2,5-diphenyltetrazolium bromide (5 mg/ml) was performed as previously described ([Ng et al., 2022]). Briefly, 4 × 10^3 cells per well were seeded in 96-well plates before drug treatment. After overnight cell culture, the cells were exposed to different concentrations of selected compounds (0.19–100 μM) for 72 h. Cells without drug treatment were used as control. Next, 10 μl of the MTT solution was added to each well and incubated at 37°C for another 4 h. Solubilization buffer (100 μl) was then added (10 mM HCl in a solution of 10% of SDS) and incubated overnight. The absorbance A at 570 nm was measured on the next day. The percentage of cell viability was calculated using the following formula: Cell viability (%) = Atreated/Acontrol × 100. Dose response curves for all assays are given in the Supplementary Figures S3–S6.
(§6) Cytotoxicity was assessed for each of artemisinin, DHA and artemether, and the amino-artemisinins artemiside and artemisone, and celastrol against A549 human lung carcinoma, BEAS-2B non-tumorigenic human bronchial epithelium, HepG2 liver hepatocellular carcinoma and LO2 human normal hepatocytes using the MTT assay ([Ng et al., 2022]). Data are presented in Table 4, and dose response curves are given in the Supplementary Figures S3–S6.
For orientation: Tetrazolium assays rely on reduction of a dye to a coloured formazan, in cell work by metabolically active cells.

Experiment [3] relates to late stage IV-V P. falciparum NF54 gametocytes. The arrangement: method as in Coertzen et al., 2018, Wong et al., 2019. As to conditions: ref Coertzen et al., 2018, Wong et al., 2019, cited from earlier work.
The test system of experiment [4] is LO2 human normal hepatocytes. Briefly: MTT cytotoxicity assay LO2. In kind it is cell-based. Conditions: Hepatocyte, 72 h, read-out: IC50 LO2. How it is done: as §4, §5, §6
In experiment [5] the test system is asexual blood stage P. falciparum W2 (multidrug resistant). The arrangement: method as in Coertzen et al., 2018; Wong et al., 2019. As to conditions: ref Coertzen et al., 2018, Wong et al., 2019, cited from earlier work.
The test system of experiment [6] is LO2 human normal hepatocytes. The experiment can be described thus: Cytotoxicity drug combination (isobole) assay LO2. In kind it is cell-based. The protocol: as §1, §2, §3
The mark [7] stands for this setting: artemisone:celastrol drug ratio 20:80, HepG2.
[8] abbreviates: artemisone:celastrol drug ratio 40:60, HepG2.
[9] abbreviates: artemisone:celastrol drug ratio 60:40, HepG2.
Setting [10] is: artemisone:celastrol drug ratio 80:20, HepG2.
[11] abbreviates: artemisone:celastrol drug ratio 20:80, LO2.
Where [12] appears, read: artemisone:celastrol drug ratio 40:60, LO2.
[13] abbreviates: artemisone:celastrol drug ratio 60:40, LO2.
[14] abbreviates: artemisone:celastrol drug ratio 80:20, LO2.

What is called IC50 is the concentration needed to halve the response being measured. With `C[C@H]1[C@H](N2CCS(=O)(=O)CC2)O[C@@H]2O[C@@]3(C)CC[C@H]4[C@H](C)CC[C@@H]1[C@@]24OO3` [Artemisone, artemisone], the IC50 is 260 to 95700 nM in the experiment with tumour cell lines; 95700 nM in the experiment with A375 melanoma cells; 73600 ± 1400 nM in experiment [2] (MTT, ± SD); 42.4 ± 3.3 nM in experiment [3] (NF54 gametocytes, luciferase, 72 h, mean ± SEM, read-out: Late stage IV-V (luc 72 h) IC50); greater than 100000 nM in experiment [4] (MTT, ± SD); 1.6 ± 0.4 nM in experiment [5] (asexual blood stage, SYBR Green I, mean ± SEM). Besides, the FIC stood at 0.3 in experiment [1] (setting [7]); 0.36 in experiment [1] (setting [8]); 0.48 in experiment [1] (setting [9]); 0.76 in experiment [1] (setting [10]); 0.18 in experiment [6] (setting [11]); 0.28 in experiment [6] (setting [12]). The FIC is listed as 0.47 in experiment [6] (setting [13]) and 0.99 in experiment [6] (setting [14]). Also, in experiment [3] (late vs immature stage gametocytes), the “Fold change preference ratio LG to EG” value is given as 0.05. For the same molecule, the “RI = IC50 W2/IC50 NF54” value in experiment [5] was 1.36^f.

Consider `CC1=C(O)C(=O)C=C2C1=CC=C1[C@@]2(C)CC[C@@]2(C)[C@@H]3C[C@](C)(C(=O)O)CC[C@]3(C)CC[C@]12C` [Celastrol, celastrol], for which the FIC in experiment [1] (artemiside:celastrol drug ratio 20:80, HepG2) worked out at 0.35; in experiment [1] (artemiside:celastrol drug ratio 40:60, HepG2), 0.34; in experiment [1] (artemiside:celastrol drug ratio 60:40, HepG2) it was 0.14; in experiment [1] (artemiside:celastrol drug ratio 80:20, HepG2) it was 0.08; in experiment [1] (setting [7]), 0.88; in experiment [1] (setting [8]), 0.4. The FIC is given as 0.23 in experiment [1] (setting [9]); 0.14 in experiment [1] (setting [10]); 1.2 in experiment [6] (artemiside:celastrol drug ratio 20:80, LO2); 1.56 in experiment [6] (artemiside:celastrol drug ratio 40:60, LO2); 1.03 in experiment [6] (artemiside:celastrol drug ratio 60:40, LO2); 0.48 in experiment [6] (artemiside:celastrol drug ratio 80:20, LO2). In addition, the FIC in experiment [6] (setting [11]) is listed as 0.7; in experiment [6] (setting [12]) it was 0.4; in experiment [6] (setting [13]), 0.29; in experiment [6] (setting [14]) it was 0.23. For the same molecule, the IC50 in experiment [2] was found to be 450 ± 100 nM; in experiment [4], 780 ± 200 nM.
